Source: patent US20170050957A1, “4-AMINO-6-(HETEROCYCLIC)PICOLINATES AND 6-AMINO-2-(HETEROCYCLIC)PYRIMIDINE-4-CARBOXYLATES AND THEIR USE AS HERBICIDES” (Dow AgroSciences LLC, priority 2013, published 2017)
Where two headings read alike, the source gives them in different places.

Key:
[1] = system: Key Broadleaf Weed and Crop Species; assay: Post-emergent Test II herbicidal activity (Table 15); assay type: in vivo; details: post-emergence, 336 h, 14 d; for pest or weed control at 35 g/ha: 35 g ai/ha; for pest or weed control at 70 g/ha: 70 g ai/ha; for pest or weed control at 140 g/ha: 140 g ai/ha
Outline: (§1)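 Plants grown in greenhouse (~15 h photoperiod, 23-29 °C day, 22-28 °C night) to first or second true leaf stage, then sprayed post-emergence at 187 L/ha with a high rate and 1/2×, 1/4×, 1/8× and 1/16× dilutions. Injury scored visually after 14 d, 0-100% versus untreated plants.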

[2] = system: Key Grass and Sedge Weeds as well as Grass Crops; assay: Post-emergent Test II herbicidal activity (Table 16); assay type: in vivo; details: post-emergence, 336 h; for pest or weed control at 35 g/ha: 35 g ai/ha; for pest or weed control at 70 g/ha: 70 g ai/ha; for pest or weed control at 140 g/ha: 140 g ai/ha
Outline: as §1

[3] = Abutilon theophrasti, velvetleaf (Abutilon theophrasti), read-out: Visual Growth Reduction (%) 14 Days After Application, ABUTH
[4] = Amaranthus retroflexus, redroot pigweed (Amaranthus retroflexus), read-out: Visual Growth Reduction (%) 14 Days After Application, AMARE
[5] = Brassica napus, oilseed rape, canola (Brassica napus), read-out: Visual Growth Reduction (%) 14 Days After Application, BRSNN
[6] = Chenopodium album, lambsquarters (Chenopodium album), read-out: Visual Growth Reduction (%) 14 Days After Application, CHEAL
[7] = Euphorbia heterophylla, wild poinsettia (Euphorbia heterophylla), read-out: Visual Growth Reduction (%) 14 Days After Application, EPHHL
[8] = Helianthus annuus, sunflower (Helianthus annuus), read-out: Visual Growth Reduction (%) 14 Days After Application, HELAN
[9] = Cyperus esculentus, yellow nutsedge (Cyperus esculentus), 14 days after application, read-out: Visual Growth Reduction (%) 14 Days After Application CYPES
[10] = Echinochloa crus-galli, barnyardgrass (Echinochloa crus-galli), 14 days after application, read-out: Visual Growth Reduction (%) 14 Days After Application ECHCG
[11] = Oryza sativa, rice (Oryza sativa), 14 days after application, read-out: Visual Growth Reduction (%) 14 Days After Application ORYSA
[12] = Setaria faberi, giant foxtail (Setaria faberi), 14 days after application, read-out: Visual Growth Reduction (%) 14 Days After Application SETFA
[13] = Triticum aestivum, wheat, spring (Triticum aestivum), 14 days after application, read-out: Visual Growth Reduction (%) 14 Days After Application TRZAS
[14] = Zea mays, maize, corn (Zea mays), 14 days after application, read-out: Visual Growth Reduction (%) 14 Days After Application ZEAMX

SMILES | pest or weed control at 35 g/ha [1, 3] [%] | pest or weed control at 70 g/ha [1, 3] [%] | pest or weed control at 140 g/ha [1, 3] [%] | pest or weed control at 35 g/ha [1, 4] [%] | pest or weed control at 70 g/ha [1, 4] [%] | pest or weed control at 140 g/ha [1, 4] [%] | pest or weed control at 35 g/ha [1, 5] [%] | pest or weed control at 70 g/ha [1, 5] [%] | pest or weed control at 140 g/ha [1, 5] [%] | pest or weed control at 35 g/ha [1, 6] [%] | pest or weed control at 70 g/ha [1, 6] [%] | pest or weed control at 140 g/ha [1, 6] [%] | pest or weed control at 35 g/ha [1, 7] [%] | pest or weed control at 70 g/ha [1, 7] [%] | pest or weed control at 140 g/ha [1, 7] [%] | pest or weed control at 35 g/ha [1, 8] [%] | pest or weed control at 70 g/ha [1, 8] [%] | pest or weed control at 140 g/ha [1, 8] [%] | pest or weed control at 70 g/ha [2, 9] [%] | pest or weed control at 140 g/ha [2, 9] [%] | also measured
COC(=O)c1nc(-c2ccc3[nH]ncc3c2)c(F)c(N)c1Cl [Compound 4.01] | 0 to 29 | 0 to 29 | 0 to 29 | 0 to 29 | 45 to 59 | 60 to 74 | 0 to 29 | 0 to 29 | 0 to 29 | 0 to 29 | 60 to 74 | 60 to 74 | 0 to 29 | 0 to 29 | 0 to 29 | 0 to 29 | 0 to 29 | 0 to 29 | 0 to 29 | 0 to 29 | pest or weed control at 35 g/ha [2, 9]: 0 to 29%; pest or weed control at 35 g/ha [2, 10]: 0 to 29%; pest or weed control at 70 g/ha [2, 10]: 0 to 29%; pest or weed control at 140 g/ha [2, 10]: 0 to 29%; pest or weed control at 35 g/ha [2, 11]: 0 to 29%; pest or weed control at 70 g/ha [2, 11]: 0 to 29%; pest or weed control at 140 g/ha [2, 11]: 0 to 29%; pest or weed control at 35 g/ha [2, 12]: 0 to 29%; pest or weed control at 70 g/ha [2, 12]: 0 to 29%; pest or weed control at 140 g/ha [2, 12]: 0 to 29%; pest or weed control at 35 g/ha [2, 13]: 0 to 29%; pest or weed control at 70 g/ha [2, 13]: 0 to 29%; pest or weed control at 140 g/ha [2, 13]: 0 to 29%; pest or weed control at 35 g/ha [2, 14]: 0 to 29%; pest or weed control at 70 g/ha [2, 14]: 0 to 29%; pest or weed control at 140 g/ha [2, 14]: 0 to 29%; melting point: 188 to 190 °C
Cc1c(-c2ccc3sccc3c2)nc(C(=O)O)c(Cl)c1N [Compound 3.07] | 0 to 29 | 0 to 29 | 0 to 29 | 0 to 29 | 60 to 74 | 75 to 84 | 45 to 59 | 60 to 74 | 60 to 74 | 0 to 29 | 0 to 29 | 75 to 84 | 0 to 29 | 0 to 29 | 0 to 29 | 85 to 94 | 85 to 94 | 85 to 94 | 0 to 29 | 0 to 29 | pest or weed control at 35 g/ha ([2]; Cyperus esculentus, yellow nutsedge (Cyperus esculentus), 14 d, read-out: Visual Growth Reduction (%) 14 Days After Application, CYPES): 0 to 29%; pest or weed control at 35 g/ha ([2]; Echinochloa crus-galli, barnyardgrass (Echinochloa crus-galli), 14 d, read-out: Visual Growth Reduction (%) 14 Days After Application, ECHCG): 0 to 29%; pest or weed control at 70 g/ha [2, 10]: 0 to 29%; pest or weed control at 140 g/ha [2, 10]: 0 to 29%; pest or weed control at 35 g/ha ([2]; Oryza sativa, rice (Oryza sativa), 14 d, read-out: Visual Growth Reduction (%) 14 Days After Application, ORYSA): 0 to 29%; pest or weed control at 70 g/ha [2, 11]: 0 to 29%; pest or weed control at 140 g/ha [2, 11]: 0 to 29%; pest or weed control at 35 g/ha ([2]; Setaria faberi, giant foxtail (Setaria faberi), 14 d, read-out: Visual Growth Reduction (%) 14 Days After Application, SETFA): 0 to 29%; pest or weed control at 70 g/ha [2, 12]: 0 to 29%; pest or weed control at 140 g/ha [2, 12]: 0 to 29%; pest or weed control at 35 g/ha ([2]; Triticum aestivum, wheat, spring (Triticum aestivum), 14 d, read-out: Visual Growth Reduction (%) 14 Days After Application, TRZAS): 0 to 29%; pest or weed control at 70 g/ha [2, 13]: 0 to 29%; pest or weed control at 140 g/ha [2, 13]: 0 to 29%; pest or weed control at 35 g/ha ([2]; Zea mays, maize, corn (Zea mays), 14 d, read-out: Visual Growth Reduction (%) 14 Days After Application, ZEAMX): 0 to 29%; pest or weed control at 70 g/ha [2, 14]: 0 to 29%; pest or weed control at 140 g/ha [2, 14]: 0 to 29%; melting point: 159 to 165 °C
